Measurements: patent US20220135622A1, “ANTIBACTERIAL PEPTIDES AND METHODS OF USE” (priority 2019, published 2022)
Square brackets hold non-standard residues; d marks the D form. Peptide text beside a SMILES is read from it. Dap = NC[C@H](N)C(=O)O

Key:
[1] = system: Enterobacter cloacae, Klebsiella pneumoniae, Acinetobacter baumannii, and Pseudomonas aeruginosa; assay: MIC against wild-type bacterial pathogens (summary over species); format: cell-based; conditions: range over the four wild-type pathogens
Experimental: (§1) Bacterial growth conditions. LB or Mueller Hinton II cation-adjusted broth (MHB II, BBL 212322) was prepared according to manufacturer's instructions and supplemented with arabinose at 0.02% for overnight growth or at indicated concentrations in the description of the figures. Bacterial cultures were grown at 37° C. When appropriate, media was supplemented with kanamycin (50 μg/mL), carbenicillin (50 μg/mL), chloramphenicol (12.5 or 25 μg/mL), hygromycin (200 μg/mL), and/or gentamicin (10 μg/mL).
(§2) Peptide sensitivity and MIC assays. Lyophilized peptides (Smartox Biotechnology, CPC Scientific. ABclonal) were solubilized to 10 mM in Tris buffer, pH 8, prior to making a 2-fold dilution series in MHBII cation adjusted broth with highest final assay concentration of 400-800 μM. Bacteria were grown to log phase and added to final OD600˜0.001. The final EDTA concentration was 0.5 mM for E. coli strains and 0.125 mM for USA300. The final volume of 10 μL/well in a 384 well black, clear bottom plate (Corning) was spun <1 min at <250×g and then incubated at 37° C. After 4 h, an equal volume (10 μL) of BacTiter-Glo™ (Promega) was added to each well and luminescence was read after 5 min on an EnVision plate reader (PerkinElmer). […] Plates were incubated at 37° C. for 20 h before measuring OD600 with an EnVision plate reader.

E. coli K12 = assay: Time-kill: colony forming units of E. coli K12 over time; format: cell-based, Escherichia coli; conditions: E. coli K12, FIG. 16A
E. coli-ATCC 25922 = assay: MIC assay, E. coli ATCC 25922; format: cell-based, Escherichia coli; conditions: Table 5; E. coli ATCC 25922, WT with O-antigen
Experimental: as §1, §2

S. aureus USA300 = assay: MIC assay, S. aureus USA300; format: cell-based, Staphylococcus aureus; conditions: Table 5; USA300 Gram-positive control
Outline: (§3)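 MHB II cation-adjusted, peptides 2-fold series (top 400-800 μM final), inoculum OD600 ~0.0002, EDTA 0.5 mM (E. coli) / 0.125 mM (USA300) final. 37° C, 20 h, OD600 read-out.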

E. coli imp4213 = assay: MIC assay, E. coli imp4213; format: cell-based, Escherichia coli; conditions: Table 5; permeable
Outline: as §3

red blood cell = assay: Red blood cell lysis assay; format: cell-based; conditions: 50 μM, after 4 hrs, FIG. 16B
E. cloacae = assay: MIC assay, E. cloacae; format: cell-based, Enterobacter cloacae; conditions: Table 5; ATCC 222, WT
Experimental: as §1, §2

A. baumannii = format: cell-based, Acinetobacter baumannii; conditions: Table 5; ATCC 19606, WT
Outline: as §3

E. coli BW25113 = format: cell-based, Escherichia coli; conditions: Table 5; E. coli K-12 (BW25113), WT
Outline: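 Growth inhibition: log-phase cells (OD600 ~0.001), peptides in 2-fold series up to 400–800 μM in MHB II, EDTA 0.5 mM (E. coli) or 0.125 mM (USA300), 4 h at 37 °C, ATP luminescence readout. MICs: inoculum at OD600 ~0.0002, with or without EDTA, 20 h at 37 °C, OD600 endpoint.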

E. coli mcr-1 = format: cell-based, Escherichia coli; conditions: Table 5; colistin^R
Outline: as §3

P. aeruginosa = format: cell-based, Pseudomonas aeruginosa; conditions: Table 5; PA-14, WT
Outline: as §3

[2] = system: Staphylococcus aureus (USA300); assay: Bacterial growth inhibition, Staphylococcus aureus (USA300); format: cell-based; conditions: Gram-positive bacterium lacking LPS
Experimental: as §1, §2

[3] = system: E. coli K-12 (pmrA^G53E and mcr-1); assay: MIC against E. coli K-12 with PMX-resistance determinants (summary); format: cell-based, Escherichia coli; conditions: range over pmrA and mcr-1 strains
Experimental: as §1, §2

K. pneumoniae = format: cell-based, Klebsiella pneumoniae; conditions: Table 5; ATCC 43816, WT
Outline: as §3

E. coli pmrA^G53Y = assay: MIC assay, E. coli pmrA^G53Y (BW25113); format: cell-based, Escherichia coli; conditions: Table 5; colistin^R
Experimental: as §1, §2

With `CSCC[C@H](NC(=O)[C@@H]1CCCN1C(=O)[C@H](Cc1ccc(O)cc1)NC(C)=O)C(=O)N[C@@H](CN)C(=O)N[C@@H](Cc1ccccc1)C(=O)N[C@@H](CCCNC(=N)N)C(=O)N[C@@H](CCCNC(=N)N)C(=O)N[C@@H](Cc1ccccc1)C(=O)N[C@@H](CC(C)C)C(=O)N[C@@H](CCC(=O)O)C(=O)N[C@@H](CCCCN)C(=O)N[C@@H](Cc1c[nH]c2ccccc12)C(=O)NCC(=O)N[C@@H](CC(C)C)C(=O)N[C@@H](CC(C)C)C(=O)N[C@@H](CCCNC(=N)N)C(N)=O` [SEQ ID NO: 69, YPM(Dap)FRRFLEKWGLLR] (Ac-YPM[Dap]FRRFLEKWGLLR-NH2) the MICs [1] was 12.5 to 200 µM, the “time-kill kinetics (CFUs over time)” value (E. coli K12) was “bactericidal” and the MICs (E. coli-ATCC 25922) was 50 µM. The MICs (S. aureus USA300) was 400 µM, the MICs (E. coli imp4213) was 6.25 µM and the “red blood cell lysis” value (red blood cell) was “no observe lysis”. For the same compound, the MICs (E. cloacae) was 12.5 µM, the MICs (A. baumannii) was 12.5 µM and the MICs (E. coli BW25113) was 25 µM. The MICs (E. coli mcr-1) was 25 µM, the MICs (P. aeruginosa) was 200 µM and the growth inhibition [2] was “impacted only at very high concentrations”. For the same compound, the MICs [3] was 12.5 to 25 µM, the MICs (K. pneumoniae) was 100 µM and the MICs (E. coli pmrA^G53Y) was 12.5 µM.
